Test results from patent EP4653001A1, “TREATMENT, DIAGNOSIS AND/OR PROGNOSIS OF MITOCHONDRIAL DISEASES” (Universidad Autónoma de Madrid, priority 2024, dated 2025).

Experiments:
[1] = system: mouse cortical neurons; test: ATP measurement in neurons (ATP Assay Kit); assay type: cell-based; conditions: CI-inhibited neurons, 100 nM, 24 h
Protocol: Primary cultures of C57BL/6 mouse cortical neurons were prepared from embryos between embryonic days 16.5 and 17.5 and seeded onto pre-treated plates coated with Poly-L-lysine hydrobromide (500 µg/ml). We used Neurobasal medium without D-glucose and sodium pyruvate (ThermoFisher) to modulate D-glucose levels, depending on the experiment (2.5 mM, 5 mM, or 25 mM).
In standard experiments, we utilized Neurobasal medium with 25 mM D-glucose, 1 mM sodium pyruvate (ThermoFisher), B27 plus supplement (GIBCO), GlutaMax I 100X (GIBCO), and 1% penicillin/streptomycin (P/S). Starting from day 6 in vitro (DIV6), half of the medium was replaced every 3-4 days, omitting GlutaMax I.
ATP Assay Kit (Abcam, #ab83355) was used to analyze ATP levels. Briefly, Cells were seeded in M24 plates (neurons at 500,000 cells/mL and monolayer density for astrocytes), and for the ATP experiments, three wells per condition were combined. An alternative deproteinization protocol was applied to purify the samples, and a Colorimetric Assay was conducted as outlined in the original protocol. The measurements were obtained using the CLARIOstar Plus plate reader from BMG LABTECH.

[2] = system: primary neurons; test: Intracellular calcium mobilization (excitability) assay; assay type: cell-based, mouse; conditions: CI inhibition
Protocol: Neuronal functionality was measured by the Rhod-4 No Wash Calcium Assay Kit (Abcam, Cat No. ab112157), following the manufacturer's instructions for intracellular calcium assay. In short, culture medium was removed, and Rhod-4 dye containing buffer was gently added to cells, followed by incubation at 37 degrees for 30 min followed by 20 min at room temperature. For imaging and quantification of intracellular calcium mobilization, confocal images were acquired using a Zeiss LSM800 confocal microscope (Jena, Alemania) enabled with a 10X objective. Time lapse images of the confocal scan were acquired every 0.5 second over a ten-minute period. Neuronal cultures were treated with 100mM KCl (final concentration) added after the first 4 minutes to establish a baseline and observe the steady- state changes in calcium mobilization in response to the treatment. Acquired confocal images were post-processed using the free and open-source Fiji image processing software. Fluorescent intensity changes were quantified using fixed parameters across the entire set of captured images.

[3] = system: 143B cells; test: PPP activity measurement in 143B cells; assay type: cell-based; conditions: 24 h
Protocol: The determination of pentose-phosphate pathway (PPP) activity was conducted by assessing the difference between 14CO2 production from 1-14C-glucose, which decarboxylates through the 6-phosphogluconate dehydrogenase-catalyzed reaction, and that of 6-^14C-glucose, which decarboxylates through the tricarboxylic acid cycle.
Increased lactate secretion is considered a good indicator of enhanced glycolytic rates, which is a common feature of ETC-inhibited cells as they switch from OXPHOS to glycolysis to maintain ATP levels. […] We culture 143B cells in the presence of Piericidin for 24 h and PPP activity and lactate release, as a proxy of glycolysis, were measured. As expected, lactate detection in the media was higher in CI-inhibited cells. […] Next, we wonder if in this context, glucose can be overused by glycolysis and therefore diverted away from the PPP. Diseases associated with impaired mitochondrial function negatively impact high energy demanding tissues such as the brain. As such, neurons that are highly sensitive to ETC inhibition also rely strongly on glucose metabolism. Thus, we used mouse cortical neurons to determine the rates of glycolysis and PPP as glucose levels become limiting. Control and Piericidin treated neurons where cultured in media containing supraphysiological (25 mM), physiological (5 mM) or subphysiological concentrations of glucose (2,5 mM). […]

[4] = system: mouse primary astrocytes; test: Morphology, proliferation and viability of primary astrocytes; assay type: cell-based
Protocol: All cell lines, 143b, HeLa, U2OS, and transmitochondrial cybrids carrying mutation in CI (ND2), CIII (CytB) or CIV (Cox2) subunits, were maintained in DMEM high glucose (HyClone), 10% FBS and 1% P/S at 37°C with 5% CO2. Mitochondrial mutant cells were cultured with supplementation of 50 µg/mL uridine. The selected cancer cell lines with different levels of malic enzyme (HCC15, KYSE410, CAKI1, J82, MDAMB453, Colo320, NCIH1703) were obtained from the DSMZ-German Collection of Microorganisms and Cell Cultures GmbH and cultured in the same DMEM 10% FBS medium. OCI-Lys3 and RCH-ACV cell lines (cells in suspension), were obtained from the same repository and cultured in RPMI 10% FBS medium. Transfections for gain- and loss-of-function studies were performed according to the manufacturer's instructions using the polyfect reagent (Qiagen, 301107). For cell number and proliferation experiments, cells were seeded in 12 or 6-well plates and allowed to proliferate for the specified durations. Subsequently, cells were trypsinized and quantified using a hemocytometer (NanoEnTek, DHC-N01). Cell viability was quantified using propidium iodide (PI; 50 µg/ml) staining.
Primary cultures of C57BL/6 mouse cortical astrocytes were derived from postnatal day 2-3 pups. […]

## CC=C(C)C(O)C(C)C=C(C)C=CCC(C)=CCc1nc(OC)c(OC)c(O)c1C (centres unmarked) [Piericidin, Piericidin A]
[1]
  ATP levels: maintained
[2]
  excitability response: diminished
[3]
  PPP activity: significant increase
[4]; PC and ME1 knockdown astrocytes vs WT controls, 100nM, 96 h
  proliferation: proliferated less
[4]; mouse primary astrocytes
  morphology, proliferation, or overall viability: no discernible impact
